Measurements taken from ChEMBL document CHEMBL5154681, “Small Amphiphilic Peptides: Activity Against a Broad Range of Drug-Resistant Bacteria and Structural Insight into Membranolytic Properties” (J Med Chem, 2022).
Converted amounts (≈) assume the structure as drawn. Square brackets hold non-standard residues; d marks the D form. Peptide text beside a SMILES is read from it. Bip = N[C@@H](Cc1ccc(-c2ccccc2)cc1)C(=O)O; Dip = N[C@H](C(=O)O)C(c1ccccc1)c1ccccc1; 2Nal = N[C@@H](Cc1ccc2ccccc2c1)C(=O)O

What was measured:
Staphylococcus aureus [1] = test: Antibacterial activity against methicillin resistant Staphylococcus aureus ATCC BAA-1556 incubated for 24 hrs by microtiter plate method; type: functional
Escherichia coli = test: Antibacterial activity against Escherichia coli ATCC 25922 incubated for 24 hrs by microtiter plate method; type: functional; details: Escherichia coli, ATCC 25922, 24 h, read-out: MIC
Staphylococcus aureus [2] = test: Antibacterial activity against Staphylococcus aureus ATCC 29213 incubated for 24 hrs by microtiter plate method; type: functional; details: Staphylococcus aureus, ATCC 29213, read-out: MIC
Pseudomonas aeruginosa = test: Antibacterial activity against Pseudomonas aeruginosa ATCC 27883 incubated for 24 hrs by microtiter plate method; type: functional; details: Pseudomonas aeruginosa, ATCC 27883, 24 h, read-out: MIC
[3] = Hemolytic activity in human RBC assessed as hemolysis incubated for 2 hrs by spectrophotometer analysis; type: toxicity, cell-based, Erythrocyte; details: human red blood cells (erythrocytes)
[4] = Staphylococcus aureus, ATCC BAA-1556, 24 h, read-out: MIC

| Compound | MIC (Staphylococcus aureus [1]; [4]) [µg/mL] | MIC (Escherichia coli) [µg/mL] | MIC (Staphylococcus aureus [2]) [µg/mL] | MIC (Pseudomonas aeruginosa) [µg/mL] | HC50 at 2 h [3] [µg/mL] | MIC (Staphylococcus aureus [1]; 24 h) [µg/mL] |
| --- | --- | --- | --- | --- | --- | --- |
| N=C(N)NCCC[C@H](NC(=O)[C@H](CCCNC(=N)N)NC(=O)[C@H](CCCNC(=N)N)NC(=O)[C@@H](N)CCCNC(=N)N)C(=O)N[C@@H](Cc1ccc(-c2ccccc2)cc1)C(=O)N[C@@H](Cc1ccc(-c2ccccc2)cc1)C(=O)N[C@@H](Cc1ccc(-c2ccccc2)cc1)C(=O)O (H-RRRR[Bip][Bip][Bip]-OH) | 12.5 (≈ 9.52 µM) | > 100 | 6.2 (≈ 4.72 µM) | 25 (≈ 19 µM) | – | – |
| N=C(N)NCCC[C@H](NC(=O)[C@@H](NC(=O)[C@@H](NC(=O)[C@H](CCCNC(=N)N)NC(=O)[C@H](CCCNC(=N)N)NC(=O)[C@@H](NC(=O)[C@@H](N)CCCNC(=N)N)C(c1ccccc1)c1ccccc1)C(c1ccccc1)c1ccccc1)C(c1ccccc1)c1ccccc1)C(=O)O (H-R[Dip]RR[Dip][Dip]R-OH) | 25 (≈ 19 µM) | 25 (≈ 19 µM) | 12.5 (≈ 9.52 µM) | 100 (≈ 76.2 µM) | 220 | – |
| N=C(N)NCCC[C@H](NC(=O)[C@H](CCCNC(=N)N)NC(=O)[C@H](CCCNC(=N)N)NC(=O)[C@H](CCCNC(=N)N)NC(=O)[C@@H](N)CCCNC(=N)N)C(=O)N[C@@H](Cc1ccc2ccccc2c1)C(=O)N[C@@H](Cc1ccc2ccccc2c1)C(=O)N[C@@H](Cc1ccc2ccccc2c1)C(=O)O (H-RRRRR[2Nal][2Nal][2Nal]-OH) | 6.2 (≈ 4.46 µM) | 25 (≈ 18 µM) | 6.2 (≈ 4.46 µM) | 25 (≈ 18 µM) | 190 | – |
| N=C(N)NCCC[C@@H]1NC(=O)[C@H](CCCNC(=N)N)NC(=O)[C@H](CCCNC(=N)N)NC(=O)[C@H](C(c2ccccc2)c2ccccc2)NC(=O)[C@H](C(c2ccccc2)c2ccccc2)NC(=O)[C@H](C(c2ccccc2)c2ccccc2)NC(=O)[C@H](C(c2ccccc2)c2ccccc2)NC(=O)[C@H](CCCNC(=N)N)NC1=O (cyclo([Dip][Dip][Dip][Dip]RRRR)) | 6.2 (≈ 4.08 µM) | 25 (≈ 16.5 µM) | 3.1 (≈ 2.04 µM) | 25 (≈ 16.5 µM) | 40 | – |
| N=C(N)NCCC[C@H](NC(=O)[C@H](CCCNC(=N)N)NC(=O)[C@@H](N)CCCNC(=N)N)C(=O)N[C@@H](Cc1ccc2ccccc2c1)C(=O)N[C@@H](Cc1ccc2ccccc2c1)C(=O)N[C@@H](Cc1ccc2ccccc2c1)C(=O)O (H-RRR[2Nal][2Nal][2Nal]-OH) | 6.2 (≈ 5.75 µM) | 12.5 (≈ 11.6 µM) | 6.2 (≈ 5.75 µM) | 25 (≈ 23.2 µM) | 105 | – |
| N=C(N)NCCC[C@@H]1NC(=O)[C@H](CCCNC(=N)N)NC(=O)[C@H](CCCNC(=N)N)NC(=O)[C@H](Cc2ccc3ccccc3c2)NC(=O)[C@H](Cc2ccc3ccccc3c2)NC(=O)[C@H](CCCNC(=N)N)NC1=O (cyclo([2Nal][2Nal]RRRR)) | 6.2 (≈ 6.08 µM) | 50 (≈ 49.1 µM) | 6.2 (≈ 6.08 µM) | 50 (≈ 49.1 µM) | 125 | – |
| N=C(N)NCCC[C@@H]1NC(=O)[C@H](CCCNC(=N)N)NC(=O)[C@H](CCCNC(=N)N)NC(=O)[C@H](Cc2ccc3ccccc3c2)NC(=O)[C@H](Cc2ccc3ccccc3c2)NC(=O)[C@H](Cc2ccc3ccccc3c2)NC(=O)[C@H](Cc2ccc3ccccc3c2)NC(=O)[C@H](CCCNC(=N)N)NC1=O (cyclo([2Nal][2Nal][2Nal][2Nal]RRRR)) | 6.2 (≈ 4.39 µM) | 25 (≈ 17.7 µM) | 3.1 (≈ 2.19 µM) | 50 (≈ 35.4 µM) | 30 | – |
| N=C(N)NCCC[C@H](NC(=O)[C@H](CCCNC(=N)N)NC(=O)[C@@H](N)CCCNC(=N)N)C(=O)N[C@H](C(=O)N[C@H](C(=O)N[C@H](C(=O)O)C(c1ccccc1)c1ccccc1)C(c1ccccc1)c1ccccc1)C(c1ccccc1)c1ccccc1 (H-RRR[Dip][Dip][Dip]-OH) | 6.2 (≈ 5.36 µM) | 6.2 (≈ 5.36 µM) | 6.2 (≈ 5.36 µM) | 25 (≈ 21.6 µM) | 120 | – |
| N=C(N)NCCC[C@H](NC(=O)[C@H](CCCNC(=N)N)NC(=O)[C@@H](N)CCCNC(=N)N)C(=O)N[C@@H](CCCNC(=N)N)C(=O)N[C@H](C(=O)N[C@H](C(=O)O)C(c1ccccc1)c1ccccc1)C(c1ccccc1)c1ccccc1 (H-RRRR[Dip][Dip]-OH) | 12.5 (≈ 11.5 µM) | 50 (≈ 45.9 µM) | 12.5 (≈ 11.5 µM) | 50 (≈ 45.9 µM) | 185 | – |
| N=C(N)NCCC[C@@H]1NC(=O)[C@H](CCCNC(=N)N)NC(=O)[C@H](C(c2ccccc2)c2ccccc2)NC(=O)[C@H](C(c2ccccc2)c2ccccc2)NC(=O)[C@H](CCCNC(=N)N)NC(=O)[C@H](CCCNC(=N)N)NC(=O)[C@H](C(c2ccccc2)c2ccccc2)NC1=O (stereo in doubt; 16C) | – | > 100 | 6.2 (≈ 4.79 µM) | 50 (≈ 38.6 µM) | 130 | 6.2 (≈ 4.79 µM) |
| N=C(N)NCCC[C@@H]1NC(=O)[C@H](CCCNC(=N)N)NC(=O)[C@H](Cc2ccc(-c3ccccc3)cc2)NC(=O)[C@H](Cc2ccc(-c3ccccc3)cc2)NC(=O)[C@H](Cc2ccc(-c3ccccc3)cc2)NC(=O)[C@H](CCCNC(=N)N)NC1=O (cyclo([Bip][Bip][Bip]RRR)) | 50 (≈ 43.9 µM) | > 100 | 50 (≈ 43.9 µM) | > 100 | – | – |
| N=C(N)NCCC[C@H](NC(=O)[C@H](CCCNC(=N)N)NC(=O)[C@H](CCCNC(=N)N)NC(=O)[C@@H](N)CCCNC(=N)N)C(=O)N[C@@H](Cc1ccc2ccccc2c1)C(=O)N[C@@H](Cc1ccc2ccccc2c1)C(=O)N[C@@H](Cc1ccc2ccccc2c1)C(=O)N[C@@H](Cc1ccc2ccccc2c1)C(=O)O (H-RRRR[2Nal][2Nal][2Nal][2Nal]-OH) | 12.5 (≈ 8.73 µM) | 50 (≈ 34.9 µM) | 12.5 (≈ 8.73 µM) | > 100 | 70 | – |
| N=C(N)NCCC[C@H](NC(=O)[C@H](CCCNC(=N)N)NC(=O)[C@@H](N)CCCNC(=N)N)C(=O)N[C@@H](CCCNC(=N)N)C(=O)N[C@H](C(=O)N[C@H](C(=O)N[C@H](C(=O)N[C@H](C(=O)O)C(c1ccccc1)c1ccccc1)C(c1ccccc1)c1ccccc1)C(c1ccccc1)c1ccccc1)C(c1ccccc1)c1ccccc1 (H-RRRR[Dip][Dip][Dip][Dip]-OH) | 12.5 (≈ 8.14 µM) | 50 (≈ 32.6 µM) | 6.2 (≈ 4.04 µM) | 50 (≈ 32.6 µM) | 75 | – |
| N=C(N)NCCC[C@@H]1NC(=O)[C@H](CCCNC(=N)N)NC(=O)[C@H](CCCNC(=N)N)NC(=O)[C@H](Cc2ccc3ccccc3c2)NC(=O)[C@H](Cc2ccc3ccccc3c2)NC(=O)[C@H](Cc2ccc3ccccc3c2)NC(=O)[C@H](CCCNC(=N)N)NC(=O)[C@H](CCCNC(=N)N)NC1=O (cyclo([2Nal][2Nal][2Nal]RRRRR)) | 6.2 (≈ 4.52 µM) | 50 (≈ 36.4 µM) | 3.1 (≈ 2.26 µM) | 25 (≈ 18.2 µM) | 90 | – |
| N=C(N)NCCC[C@@H]1NC(=O)[C@H](CCCNC(=N)N)NC(=O)[C@H](Cc2ccc3ccccc3c2)NC(=O)[C@H](Cc2ccc3ccccc3c2)NC(=O)[C@H](CCCNC(=N)N)NC(=O)[C@H](CCCNC(=N)N)NC(=O)[C@H](Cc2ccc3ccccc3c2)NC1=O (stereo in doubt; 18C) | 6.2 (≈ 5.1 µM) | 25 (≈ 20.6 µM) | 6.2 (≈ 5.1 µM) | > 100 | 105 | – |
| N=C(N)NCCC[C@H](NC(=O)[C@H](CCCNC(=N)N)NC(=O)[C@@H](N)CCCNC(=N)N)C(=O)N[C@@H](Cc1ccc(-c2ccccc2)cc1)C(=O)N[C@@H](Cc1ccc(-c2ccccc2)cc1)C(=O)N[C@@H](Cc1ccc(-c2ccccc2)cc1)C(=O)O (H-RRR[Bip][Bip][Bip]-OH) | 50 (≈ 43.2 µM) | > 100 | 50 (≈ 43.2 µM) | > 100 | – | – |
| N=C(N)NCCC[C@H](NC(=O)[C@H](CCCNC(=N)N)NC(=O)[C@H](CCCNC(=N)N)NC(=O)[C@@H](N)CCCNC(=N)N)C(=O)N[C@@H](CCCNC(=N)N)C(=O)N[C@H](C(=O)N[C@H](C(=O)N[C@H](C(=O)O)C(c1ccccc1)c1ccccc1)C(c1ccccc1)c1ccccc1)C(c1ccccc1)c1ccccc1 (H-RRRRR[Dip][Dip][Dip]-OH) | 12.5 (≈ 8.51 µM) | 25 (≈ 17 µM) | 12.5 (≈ 8.51 µM) | 50 (≈ 34 µM) | 165 | – |
| NCCCC[C@@H]1NC(=O)[C@H](CCCCN)NC(=O)[C@H](CCCCN)NC(=O)[C@H](C(c2ccccc2)c2ccccc2)NC(=O)[C@H](C(c2ccccc2)c2ccccc2)NC(=O)[C@H](C(c2ccccc2)c2ccccc2)NC(=O)[C@H](CCCCN)NC1=O (cyclo([Dip][Dip][Dip]KKKK)) | 12.5 (≈ 10.6 µM) | > 100 | 12.5 (≈ 10.6 µM) | > 100 | 165 | – |
| N=C(N)NCCC[C@@H]1NC(=O)[C@H](CCCNC(=N)N)NC(=O)[C@H](CCCNC(=N)N)NC(=O)[C@H](Cc2ccc(-c3ccccc3)cc2)NC(=O)[C@H](Cc2ccc(-c3ccccc3)cc2)NC(=O)[C@H](Cc2ccc(-c3ccccc3)cc2)NC(=O)[C@H](CCCNC(=N)N)NC1=O (cyclo([Bip][Bip][Bip]RRRR)) | 6.2 (≈ 4.79 µM) | > 100 | 3.1 (≈ 2.39 µM) | 25 (≈ 19.3 µM) | – | – |
| N=C(N)NCCC[C@H](NC(=O)[C@H](CCCNC(=N)N)NC(=O)[C@H](CCCNC(=N)N)NC(=O)[C@@H](N)CCCNC(=N)N)C(=O)N[C@@H](Cc1ccc(-c2ccccc2)cc1)C(=O)N[C@@H](Cc1ccc(-c2ccccc2)cc1)C(=O)N[C@@H](Cc1ccc(-c2ccccc2)cc1)C(=O)N[C@@H](Cc1ccc(-c2ccccc2)cc1)C(=O)O (H-RRRR[Bip][Bip][Bip][Bip]-OH) | > 100 | > 100 | > 100 | > 100 | – | – |
| N=C(N)NCCC[C@@H]1NC(=O)[C@H](CCCNC(=N)N)NC(=O)[C@H](CCCNC(=N)N)NC(=O)[C@H](Cc2ccc(-c3ccccc3)cc2)NC(=O)[C@H](Cc2ccc(-c3ccccc3)cc2)NC(=O)[C@H](Cc2ccc(-c3ccccc3)cc2)NC(=O)[C@H](Cc2ccc(-c3ccccc3)cc2)NC(=O)[C@H](CCCNC(=N)N)NC1=O (cyclo([Bip][Bip][Bip][Bip]RRRR)) | > 100 | > 100 | 50 (≈ 32.9 µM) | > 100 | – | – |
